{
  "source": "patent US20040121991A1",
  "about": "“Dehydroepiandrosterone (DHEA) congeners for prevention and/or treatment of ulcers” (priority 2002, published 2004)",
  "key": {"[1]": {"test_system": "TNBS-induced colonic damage", "format": "in vivo, Male Wistar rats", "procedure": "In this Example, the effects of DHEA were evaluated in the TNBS model (see, e.g., Boughton-Smith et al., 1988; Morris et al., 1989; Reuter et al., 1996) at a defined oral dose administered twice a day by gavage, using a low intracolonic concentration of TNBS (10 mg). This challenge dose of TNBS is known to generate reproducible yet not unduly severe mucosal injury in the colon, as determined 3 days after instillation. In this current investigation, colonic macroscopic injury has been assessed. In addition to DHEA, the effect of a single daily low oral dose of dexamethasone, which has a broad profile of anti-inflammatory actions, was also evaluated in this model.\nMale Wistar rats (220-300 g) were randomised into groups before commencement of the study. On day 0, the rats were transiently anaesthetised with ether and TNBS (10 mg in 0.25 ml of 50% ethanol) was instilled into the colon using a soft plastic catheter inserted in the rat rectum. The rats were allowed to recover with free access to food and drinking water. At the end of the Experiment, 72 h after TNBS administration (i.e. on the morning of day 3), the distal colon was dissected, photographed and stored appropriately for subsequent analyses. Macroscopic scoring of distal 8 cm of colon was measured as the primary efficacy parameter. In addition, the weight of the colonic segment was assessed as an indirect and non-specific marker of oedema, and the body weight of the animals was determined each day of the study.\nThe groups (n=8-12) for study with TNBS challenge were: (a) saline control administered in 0.5 ml p.o. per rat, b.i.d; (b) DHEA (50 mg per rat, b.i.d); (c) dexamethasone (0.3 mg/kg, oral, once daily); (d) control non-challenged with TNBS and non-drug-treated (received only salineb.i.d.). The DHEA was administered orally, twice daily for 48 h before TNBS administration, on Day 0 with TNBS administration and on Day 1 and 2. The DHEA was administered as a solid bicarbonate composite providing high bioavailability. Tissues were removed 72 h after TNBS administration (Day 3). Saline treated animals on the final day were 95.6+/−1.7% of mean starting body weight. Similarly, DHEA-treated animals were 95.4+/−1.1% of their mean starting body weight. Weight loss in the Dexamethasone treatment group was significant at 84.5+/−1.3% of starting weight."}, "[2]": {"test_system": "oral mucositis", "assay": "Acute radiation model of oral mucositis in hamsters", "format": "in vivo, Male Golden Syrian hamsters", "conditions": "day -1 to day 27; for weight change following irradiation: 40 Gy on day 0, DHEA-cyclodextrin complex; for daily mucositis scores vs saline control: score scale 0-5", "source_text": "The acute radiation model in hamsters (see, e.g., Sonis et al., 2000) has proven to be an accurate, efficient and cost-effective technique to provide a preliminary evaluation of anti-mucositis compounds. The course of mucositis in this model is well defined and results in peak ulceration scores approximately 14-16 days following radiation. The acute model has been used to study specific mechanistic elements in the pathogenesis of mucositis. Molecules that show efficacy in the acute radiation model may be further evaluated in the more complex models of fractionated radiation, chemotherapy, or concomitant therapy. In this example, an acute radiation dose of 40 Gy on day 0 was administered and clinically significant mucositis was observed around day 14.\nAnimals. Male Golden Syrian hamsters were randomly and prospectively divided into six (6) treatment groups prior to irradiation as follows:\nHamsters were given an acute radiation dose directed to their oral mucosa. Test materials were applied by injection (once per day) or by oral dosing (either once or twice per day. Oral administrations were done using feeding needles. Dosing began the day before radiation (day −1) and continued until day 27. The test material utilized was an Inflabloc® pharmaceutical preparation, which, for the present example, comprised a complex of DHEA and cyclodextrin.\nStarting on Day 6 and continuing every second day thereafter (days 8, 10, 12, 14, 16, 18, 20, 22, 24, 26, & 28), each animal was evaluated for mucositis scoring.\nMucositis Scoring. Parameters measured were the mucositis score, weight change and survival. For the evaluation of mucositis, the animals were anesthetized with inhalation anesthetics, and the left pouch everted. Mucositis was scored visually by comparison to a validated photographic scale, ranging from 0 for normal, to 5 for severe ulceration (clinical scoring).\nA score of 1-2 is considered to represent a mild stage of the disease, whereas a score of 3-5 is considered to indicate moderate to severe mucositis. Following visual scoring, a photograph was taken of each animal's mucosa using a standardized technique. At the conclusion of the experiment, all film was developed and the photographs randomly numbered. At least two independent trained observers graded the photographs in blinded fashion using the above-described scale (blinded scoring).\nThe effect on mucositis of each drug treatment compared to placebo was assessed according to these parameters: the difference in the number of days hamsters in each group have severe (score 3) mucositis and the rank sum differences in daily mucositis scores. On each evaluation day, the number of animals with a blinded mucositis score of 3 in each drug treatment group, was compared to the control group. Differences were analyzed on a cumulative basis. For each evaluation day the scores of the control group were compared to those of the placebo group and vehicle group.\nMucositis Induction. Mucositis was induced using a standardized acute radiation protocol using a single dose of radiation (40 Gy/dose) on Day 0."}},
  "note": "Where “and” joins values, the source holds several entries; their conditions need not be identical. Equal entries are not always repeated.",
  "data": [
    {"smiles": "C[C@]12CC[C@H](O)CC1=CC[C@@H]1[C@@H]2CC[C@]2(C)C(=O)CC[C@@H]12", "note": "[DHEA, (3β)-3-hydroxyandrost-5-en-17-one]", "values": [
      {"measurement": "body weight on the final day, % of mean starting body weight", "setting": "[1]; DHEA 50 mg per rat b.i.d. oral, solid bicarbonate composite, TNBS 10 mg, day 3", "result": "95.4+/−1.1%"},
      {"measurement": "area of colonic injury, % of total colonic area of the segment", "setting": "[1]; DHEA 50 mg per rat b.i.d. oral, 72 h after TNBS challenge, TNBS control 48±2%", "result": "31+/−3%"},
      {"measurement": "reduction in the area of colonic injury", "setting": "[1]; DHEA 50 mg per rat b.i.d. oral, vs TNBS control, P<0.001", "result": "40% and ~40%"},
      {"measurement": "colon weight of the standard segment (index of inflammatory oedema)", "setting": "[1]; DHEA 50 mg per rat b.i.d. oral, vs saline + TNBS, end of study", "result": "significantly (P<0.001) reduced"},
      {"measurement": "weight change following irradiation", "setting": "[2]; 25 mg/kg/day ip", "result": "weight gain patterns that closely corresponded to those observed in the control group"},
      {"measurement": "daily mucositis scores vs saline control", "setting": "[2]; 50 mg/kg i.p.", "result": "significantly lower than those in the saline control group"},
      {"measurement": "weight change following irradiation", "setting": "[2]; 50 mg/kg/day ip", "result": "weight gain patterns that closely corresponded to those observed in the control group"},
      {"measurement": "weight change following irradiation", "setting": "[2]; 250 mg/kg/day p.o.", "result": "no pattern of weight loss"},
      {"measurement": "daily mucositis scores vs saline control", "setting": "[2]; 500 mg/kg/day oral", "result": "significantly lower than those in the saline control group"},
      {"measurement": "weight change following irradiation", "setting": "[2]; 500 mg/kg/day p.o.", "result": "no pattern of weight loss"}
    ]},
    {"smiles": "C[C@@H]1C[C@H]2[C@@H]3CCC4=CC(=O)C=C[C@]4(C)[C@@]3(F)[C@@H](O)C[C@]2(C)[C@@]1(O)C(=O)CO", "note": "[dexamethasone]", "values": [
      {"measurement": "area of colonic injury, % of the mucosal area", "setting": "[1]; dexamethasone 0.3 mg/kg once a day oral, 72 h after TNBS challenge, n=8, TNBS control 48±2%", "result": "41±5", "unit": "%"}
    ]}
  ]
}
